# In ChEMBL document CHEMBL3875150, “Biological evaluation of some new N-(2,6-dimethoxypyrimidinyl) thioureido benzenesulfonamide derivatives as potential antimicrobial and anticancer agents” (Eur J Med Chem, 2016):
# How the values were obtained:
# [1] = system: Aspergillus fumigatus; assay: Antifungal activity against Aspergillus fumigatus RCMB 002568 assessed as diameter of inhibition zone at 1 mg/mL after 48 hrs by agar well diffusion method; type: functional; details: RCMB 002568, 48 h, read-out: DIZ
# [2] = system: Candida albicans; assay: Antifungal activity against Candida albicans RCMB 005036 assessed as diameter of inhibition zone at 1 mg/mL after 24 to 48 hrs by agar well diffusion method; type: functional; details: read-out: DIZ
# [3] = system: Streptococcus pneumoniae; assay: Antibacterial activity against Streptococcus pneumoniae RCMB 010010 assessed as diameter of inhibition zone at 1 mg/mL after 24 to 48 hrs by agar well diffusion method; type: functional; details: read-out: DIZ
# [4] = system: Bacillus subtilis; assay: Antibacterial activity against Bacillus subtilis RCMB 010067 assessed as diameter of inhibition zone at 1 mg/mL after 24 to 48 hrs by agar well diffusion method; type: functional; details: read-out: DIZ
# [5] = system: Pseudomonas aeruginosa; assay: Antibacterial activity against Pseudomonas aeruginosa RCMB 010043 assessed as diameter of inhibition zone at 1 mg/mL after 24 to 48 hrs by agar well diffusion method; type: functional; details: read-out: DIZ
# [6] = system: Escherichia coli; assay: Antibacterial activity against Escherichia coli RCMB 010052 assessed as diameter of inhibition zone at 1 mg/mL after 24 to 48 hrs by agar well diffusion method; type: functional; details: read-out: DIZ
# [7] = system: Aspergillus fumigatus; assay: Antifungal activity against Aspergillus fumigatus RCMB 002568 after 24 to 48 hrs by agar well diffusion method; type: functional
# [8] = system: Candida albicans; assay: Antifungal activity against Candida albicans RCMB 005036 after 24 to 48 hrs by agar well diffusion method; type: functional
# [9] = system: Streptococcus pneumoniae; assay: Antibacterial activity against Streptococcus pneumoniae RCMB 010010 after 24 to 48 hrs by agar well diffusion method; type: functional
# [10] = system: Bacillus subtilis; assay: Antibacterial activity against Bacillus subtilis RCMB 010067 after 24 to 48 hrs by agar well diffusion method; type: functional
# [11] = system: Pseudomonas aeruginosa; assay: Antibacterial activity against Pseudomonas aeruginosa RCMB 010043 after 24 to 48 hrs by agar well diffusion method; type: functional
# [12] = system: Escherichia coli; assay: Antibacterial activity against Escherichia coli RCMB 010052 after 24 to 48 hrs by agar well diffusion method; type: functional
# [13] = (§1) Cytotoxicity against human MCF7 cells assessed as decrease in cell viability after 24 hrs by MTT assay; type: functional, cell-based; details: MCF7, 24 h
# [14] = system: MCF7; assay: as §1; type: functional, cell-based
# [15] = system: MCF7; assay: Potency index, ratio of 5-fluorouracil IC50 to test compound IC50 for human MCF7 cells; type: functional
Structure (SMILES),zone of inhibition at 1000 µg/mL [1] [mm],zone of inhibition at 1000 µg/mL [2] [mm],zone of inhibition at 1000 µg/mL [3] [mm],zone of inhibition at 1000 µg/mL [4] [mm],zone of inhibition at 1000 µg/mL [5] [mm],zone of inhibition at 1000 µg/mL [6] [mm],MIC [7] [µg/mL],MIC [8] [µg/mL],MIC [9] [µg/mL],MIC [10] [µg/mL],MIC [11] [µg/mL],MIC [12] [µg/mL],IC50 [13] [µg/mL],Activity [14],Ratio IC50 [15]
COc1cc(NS(=O)(=O)c2ccc(NC(=S)Nc3cc(=O)n(C)c(=O)n3C)cc2)nc(OC)n1,15.7,13.8,17.9,18.5,8.1,19.1,62.5,125,7.81,3.9,500,3.9,96.1,Dose-dependent effect,–
COc1cc(NS(=O)(=O)c2ccc(NC(=S)Nc3nc4c(OC)cccc4s3)cc2)nc(OC)n1,16.4,13.2,17.8,18.3,8.9,16.2,7.81,125,7.81,7.81,500,62.5,47.6,Dose-dependent effect,–
COc1cc(NS(=O)(=O)c2ccc(NC(=S)Nc3ccc4c(C)cc(=O)oc4c3)cc2)nc(OC)n1,20.3,18.1,20.6,23.4,10.6,23.4,3.9,7.81,3.9,1.95,125,1.95,35.2,Dose-dependent effect,–
COc1cc(NS(=O)(=O)c2ccc(NC(=S)NN3C(=O)CSC3=S)cc2)nc(OC)n1,24.3,22.3,24.3,28.1,14.9,27.2,0.98,1.95,0.98,0.49,62.5,0.49,47.7,Dose-dependent effect,–
COc1cc(NS(=O)(=O)c2ccc(NC(=S)Nc3cc(C)nc4ccccc34)cc2)nc(OC)n1,13.7,14.5,13.9,14.4,8.9,15,125,125,125,125,500,125,68.7,Dose-dependent effect,–
COc1cc(NS(=O)(=O)c2ccc(NC(=S)Nc3cccc4nsnc34)cc2)nc(OC)n1,22.3,20.4,22.7,26.3,11.7,24.2,1.95,3.9,1.95,0.98,250,0.98,> 200,Dose-dependent effect,–
CCOc1ccc2nc(NC(=S)Nc3ccc(S(=O)(=O)Nc4cc(OC)nc(OC)n4)cc3)sc2c1,18.3,19.1,20.3,21.3,9.2,18.3,7.81,7.81,3.9,3.9,500,7.81,> 200,Dose-dependent effect,–
COc1cc(NS(=O)(=O)c2ccc(NC(=S)Nc3cc(=O)[nH]c(=O)[nH]3)cc2)nc(OC)n1,21.3,20.1,22.3,26.1,8.5,24.3,3.9,3.9,1.95,0.98,500,0.98,37.3,Dose-dependent effect,–
COc1cc(NS(=O)(=O)c2ccc(NC(=S)NC3CCN(Cc4ccccc4)CC3)cc2)nc(OC)n1,14.2,12.7,17.3,18.4,8.2,16.3,125,125,15.6,7.81,500,62.5,1.72,Dose-dependent effect,3
COc1cc(NS(=O)(=O)c2ccc(NC(=S)Nc3cnccn3)cc2)nc(OC)n1,24.9,23.4,25.8,26.4,18.3,28.7,0.98,1.95,0.98,0.98,62.5,0.49,> 200,Dose-dependent effect,–
